Drawing on PubChem BioAssay (NCI), this text covers GI50 and TGI for 39 compounds.

Several values for one entry are separate records, joined by “and”; a condition that tells them apart may be missing. Equal values may be shown once.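 48-hour exposure; five concentrations; linearly interpolated endpoints. GI50 is the concentration that inhibits growth by half. The concentration for full growth arrest is given as TGI.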 *1 amine or outer side, *2 acyl side, *3 side chain or, on linkers, in order; H or OH if unused. Where a SMILES comes first, the peptide text is derived from it. Bridges are numbered along the chain shown (N, C = ends). [ ]: non-standard residue; d: D form. The star is where a group is joined. ξ: configuration not given here. Phe(3,5-F2) = N[C@@H](Cc1cc(F)cc(F)c1)C(=O)O; ξThr(3S) = C[C@H](O[*:3])C(N[*:1])C(=O)[*:2]; Pro(4R-Me) = C[C@H]1CN[C@H](C(=O)O)C1; Pip = O=C(O)[C@@H]1CCCCN1; X1 = Cc1ccc(N*)c(F)c1; CO = O=C([*:1])[*:2]

This assay deals with MDA-MB-468 breast. The assay can be described thus: growth of human tumour cells (NCI), 48 h.
Turning to `N#CSc1c[nH]c2ccc(/C=C/C(=O)/C=C(O)/C=C/c3ccc4[nH]cc(SC#N)c4c3)cc12`, the GI50 is 2.06 µM and the TGI was found to be 6.67 µM.
In the same order, the values of `CC(C)Cn1cnc2c(N)nc3ccccc3c21` are 12.4 µM and over 62.1 µM.
For the compound `C#C[C@]1(O)CC[C@H]2[C@@H]3CC=C4c5sc(Nc6cc(C)cc(C)c6)nc5CC[C@]4(C)[C@H]3CC[C@@]21C`, the GI50 was 2.54 µM and the TGI was found to be 8.69 µM.
The matching figures for `COc1cccc2c1C(=O)c1c(O)c3c(c(O)c1C2=O)C[C@@](O)(C(=O)CO)C[C@@H]3OC1CC(N2CCOCC2)C(O)C(C)O1` (some centres not stated): 0.0369 µM and 0.216 µM.
The matching figures for `Cc1ccc(-c2nnc(SCc3ccc(O)c4ncccc34)o2)cc1`: 1.88 µM and over 100 µM.
Consider `CN1CCN(CCCOC(=O)c2c3c(n4ccccc24)C(=O)c2ncccc2C3=O)CC1`, for which the GI50 is 1.88 µM and the TGI is 20.6 µM.
On to `CCCCCOC(=O)c1c(C)[nH]c(/C=C2\N=C(c3ccc[nH]3)C=C2OC)c1C`, for which the GI50 was 0.0546 µM and the TGI was 1.32 µM.
In the same order, the values of `c1ccc2[nH]c(-c3ccc(Nc4nc(N5CCCC5)nc5[nH]ncc45)cc3)nc2c1` are 0.277 µM and 1.21 µM.
Turning to `Clc1ccc2c(NCCCCNc3nc(N4CCOCC4)nc4ccccc34)ccnc2c1`, the GI50 is 2.82 µM and the TGI was determined as 7.97 µM.
In the same order, the values of `COc1cc(-c2csc(NC(=O)Nc3ccc(Cl)cc3)n2)cc(OC)c1OC` are 2.96 µM and 9.35 µM.
As for `Cc1ccc(/C=C/C(=O)c2ccc(F)cc2)s1`, the GI50 is 2.97 µM and the TGI worked out at 16.4 µM.
Regarding `CCCN1CCC(Oc2cc(Nc3nc(Nc4cccc(F)c4C(N)=O)c4cc[nH]c4n3)c(OC)cc2Cl)CC1`, the GI50 is 0.537 µM and the TGI turned out to be 1.35 µM.
For the compound `CCCCCCCCCCCC(c1ccccc1)[N+](C)(C)C` (configuration not stated), the GI50 is 0.257 µM and the TGI is 1.35 µM.
In the same order, the values of `O=C(Nc1ccccc1/C=C/c1n[nH]c2ccccc12)c1ccccc1` are 6.35 µM and 20.4 µM.
Turning to `CCN(Cc1ccccc1)c1ccc(/C=C2\COc3ccccc3C2=O)cc1`, the GI50 is 438 µM and the TGI is over 1000 µM.
Take `C=CC(=O)N1CCN([C@@H](CC2CC2)c2ccc([C@H](C)Nc3ncc4c(n3)N(CC)C(=O)OC4)cc2)CC1`: the GI50 is 3.3 µM and the TGI came out at 13.8 µM.
In the same order, the values of `CN1CCN(c2cc(F)c(NC3=C(Cl)C(=O)c4ncccc4C3=O)c(F)c2)CC1` are 1.01 µM and 2.61 µM.
`COc1ccc(-c2nc(-c3nc4cc(Cl)c(Cl)cc4[nH]3)c3ccccn23)cc1`: the GI50 is 5.04 µM and the TGI is over 100 µM.
The matching figures for `Cc1[nH]nc2ncc(C#Cc3cncc(C(=O)Nc4ccc(CN5CCN(C)CC5)c(C(F)(F)F)c4)c3)cc12`: 0.141 µM and 0.911 µM.
On to `Cc1ccc(NC(=O)c2ccoc2)cc1-c1ccc(C(=O)NCC2CC2)cc1`, for which the GI50 is 6.37 µM and the TGI is over 25 µM.
Turning to `Clc1cccc(-c2cc(-c3ccc4c(c3)OCCO4)[nH]n2)c1`, the GI50 was 10.9 µM and the TGI came out at 57.8 µM.
As for `CCOc1ccc2nc3cc(N)ccc3c(N)c2c1`, the GI50 is 0.268 µM and 0.135 µM; the TGI was 0.972 µM and 0.493 µM.
In the case of `COc1ccc(C2c3cc4c(cc3OC(N3CCOCC3)C2C)OCO4)cc1OC` (configuration not stated), the GI50 is 7.56 µM and the TGI was over 100 µM.
`Cc1cc(NC(=O)NCCCOc2ccc(N3C(N)=NC(N)=NC3(C)C)cc2Cl)ccc1S(=O)(=O)F`: the GI50 is 0.638 µM and the TGI turned out to be 19.7 µM.
The matching figures for `CCn1c(-c2nonc2N)nc2cnc(Oc3cccc(NC(=O)c4ccc(OCCN5CCOCC5)cc4)c3)cc21`: 1.13 µM and 19.9 µM.
For `CC(=O)Nc1ccc(CC[C@H]2CCC/C=C/[C@@H]3C[C@H](O)C[C@H]3[C@H](O)/C=C/C(=O)O2)cc1`, the GI50 was 0.0213 µM and the TGI came out at 0.0503 µM.
In the case of `Cc1ccc(NC(=O)N[C@@H](Cc2cc(F)cc(F)c2)C(=O)NC2C(=O)N3CCC[C@H]3C(=O)N3CCCC[C@H]3C(=O)N[C@@H](C)C(=O)N3C[C@H](C)C[C@H]3C(=O)O[C@H]2C)c(F)c1` (stereo partly drawn) ({X1-CO}-[Phe(3,5-F2)][ξThr(3S)]P[Pip]A[Pro(4R-Me)]; ester 2-C), the GI50 was 0.174 µM and 0.0874 µM.
`CC[C@@H]1C(=O)N(C)c2cnc(Nc3ccc(C(=O)NC4CCC(N5CCN(CC6CC6)CC5)CC4)cc3OC)nc2N1C(C)C` (some centres not stated): the GI50 was 0.00331 µM and < 0.01 µM; the TGI came out at 0.121 µM.
With `Clc1ccc2c(NC3CCC(NC4CCCCC4)CC3)ccnc2c1` (configuration not stated), the GI50 is 1.68 µM and the TGI is 8.1 µM.
In the same order, the values of `C=CCn1c(SCC(=O)Nc2ccc(C(=O)/C=C/c3cc(OC)c(OC)c(OC)c3)cc2)nnc1-c1cc(OC)c(OC)c(OC)c1` are 2.45 µM and 6.66 µM.
As to `CN1CCN(c2ccc3nc(-c4[nH]ncc4Nc4ncnc5[nH]ccc45)[nH]c3c2)CC1`, the GI50 was 0.197 µM and the TGI turned out to be 0.487 µM.
`Nc1nc(N)c2cc(S(=O)(=O)c3cccc(C(F)(F)F)c3)ccc2n1`: the GI50 is 2.34 µM and the TGI is over 100 µM.
In the same order, the values of `C=C(C)[C@@H]1CC[C@]2(C(=O)OC)CC[C@]3(C)[C@H](CC[C@@H]4[C@@](C)(CCc5nn[nH]n5)[C@H](C(=C)C)CC[C@]43C)[C@@H]12` are 13.8 µM and 36.4 µM.
Take `COCCn1c(Nc2ccc(C(=O)NO)cc2)nc2ccccc21`: the GI50 is 3.43 µM and the TGI came to 16 µM.
For `COc1ccc(-c2nn3ncccc3c2-c2ccnc(Nc3ccc(F)c(F)c3)n2)cc1`, the GI50 is 6 µM and the TGI was over 18.9 µM.
On to `O=C(O)CN(CCN(CC(=O)O)CC(=O)O)CCN(CC(=O)O)CC(=O)O`, for which the GI50 is 4.03 µM and the TGI turned out to be 16.4 µM.
The matching figures for `CN(C)CCN1C(=O)c2cccc3cc(N)cc(c23)C1=O`: 2.95 µM and 11.9 µM.
The matching figures for `CN1CCC2(CC1)C(=O)Nc1cc(NC(=O)c3ccc4c(c3)C[C@@H]3C(C)(C)[C@H](O)[C@H](F)C[C@@]3(C)O4)ccc12`: 0.74 µM and 11.7 µM.
With `CCCCCCCCCCCC1=NC(C)(C)CN1C(C)C`, the GI50 is 1.66 µM and the TGI stood at 3.8 µM.
